We go through 21 molecules from patent US20250092065A1, “2-(INDAZOL-5-YL)-6-(PIPERIDIN-4-YL)-1,7-NAPHTHYRIDINE DERIVATIVES AND RELATED COMPOUNDS AS MODULATORS FOR SPLICING NUCLEIC ACIDS AND FOR THE TREATMENT OF PROLIFERATIVE DISEASES” (REMIX THERAPEUTICS INC., priority 2022, published 2025).

Where two headings read alike, the source gives them in different places. Where only a bound is given, the exact number is not on record here.

What all share (format): cell-based, human
The subject of experiment [1] is MYB mRNA. The experiment can be described thus: RT-qPCR splicing assay, MYB mRNA canonical (CJ) and alternative (AJ) junction. The note with it: for AC50: MYB alternative junction mRNA, read-out: MYB AJ (increase in AJ mRNA, AC50). The method, boiled down:
(§1)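 A673 or K562 cells treated 24 h at 37 °C with an 11-point 3-fold dilution series (top 10 uM, DMSO ≤0.25%). Lysates went directly to one-step RT-qPCR quantifying canonical (CJ) and alternative-exon (AJ) junctions, normalized to GAPDH, GUSB or PPIA. Values from ΔΔCt versus DMSO, RQ = 2^(−ΔΔCt), expressed as percentage response.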

The test system of experiment [2] is Target C. The experiment can be described thus: HiBiT protein abundance assay, Target C (K562 HiBiT knock-in). To be noted: HiBiT knock-in K562 cells, 24 hours, top dose 10 μM. The method, boiled down:
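K562 HiBiT knock-in cells (10000/well) were treated 24 h at 37° C with a 10-point 3-fold dilution series (top 10 μM final, ≤0.25% DMSO). HiBiT luminescence was read after lytic LgBiT detection. Percent response used unmodified K562 and DMSO-treated knock-in controls, and IC50 came from a four-parameter fit at 50% of untreated.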
In general terms: HiBiT is a short tag that completes a luciferase, so light tracks the accessible tagged protein.

Experiment [3] concerns MYB. The experiment can be described thus: HiBiT protein abundance assay, MYB (K562 HiBiT knock-in). To be noted: HiBiT knock-in K562 cells, 24 hours, top dose 10 μM. The method, boiled down: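 K562 HiBiT knock-in, 24 h, 37 °C, top 10 μM final, 3-fold ×10, DMSO ≤0.25%. Lytic HiBiT luminescence; PC = parental K562, NC = DMSO; 4PL IC50.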
Experiment [4] has as its system SMN2 mRNA. The experiment can be described thus: RT-qPCR splicing assay, SMN2 mRNA. The note with it: canonical junction qPCR panel, Table 4, read-out: SMN2 IC50 (decrease in CJ mRNA levels). In a few lines:
as §1
A general note: Real-time PCR tracks product formation cycle by cycle.

Setting [5] is: Homo sapiens, MYB canonical junction mRNA, RT-qPCR, read-out: MYB CJ (decrease in CJ mRNA levels, IC50).
[6] abbreviates: Homo sapiens, canonical junction qPCR panel, Table 4, read-out: MYB IC50 (decrease in CJ mRNA levels).

`Cn1cc2cc(-c3ccc4nc(N5CCC(NC6CC6)C5)ccc4n3)c(O)c(F)c2n1` (racemic) [Compound 287, 5-{6-[3-(cyclopropylamino)pyrrolidin-1-yl]-1,5-naphthyridin-2-yl}-7-fluoro-2-methylindazol-6-ol; trifluoroacetic acid]: in experiment [1] (Homo sapiens, RT-qPCR), the AC50 (commonly the concentration giving half of the maximal activity seen) was less than 0.1 µM. Moreover, the IC50 in experiment [1] (setting [5]), in experiment [1] (setting [6]), in experiment [2], in experiment [3] and in experiment [4] (Homo sapiens) was less than 0.1 µM each time.
As to `CC(C)N[C@@H]1CCN(c2ccc3nc(-c4cc5cn(C)nc5c(F)c4O)ccc3n2)C1` (single isomer, unassigned) [Compound 285], the AC50 in experiment [1] (Homo sapiens, RT-qPCR) is less than 0.1 µM. For the same molecule, the IC50 in experiment [1] (setting [5]), in experiment [1] (setting [6]), in experiment [2], in experiment [3] and in experiment [4] (Homo sapiens) was less than 0.1 µM in each case.
For the molecule `CC(C)N[C@H]1CCN(c2ccc3nc(-c4cc5cn(C)nc5c(F)c4O)ccc3n2)C1` (single isomer, unassigned) [Compound 286], the AC50 in experiment [1] (Homo sapiens, RT-qPCR) is less than 0.1 µM. Further, the IC50 in experiment [1] (setting [5]), in experiment [1] (setting [6]), in experiment [2], in experiment [3] and in experiment [4] (Homo sapiens) was less than 0.1 µM throughout.
`Cc1c(O)c(-c2ccc3nc(N4CC[C@@H](NC5CCC5)C4)ccc3n2)cc2cn(C)nc12` (single isomer, unassigned) [Compound 289]: in experiment [1] (Homo sapiens, RT-qPCR), the AC50 was less than 0.1 µM. Also, the IC50 in experiment [1] (setting [5]), in experiment [1] (setting [6]), in experiment [2], in experiment [3] and in experiment [4] (Homo sapiens) was less than 0.1 µM throughout.
Turning to `Cc1c(O)c(-c2ccc3nc(N4CC[C@H](NC5CCC5)C4)ccc3n2)cc2cn(C)nc12` (single isomer, unassigned) [Compound 290], the AC50 in experiment [1] (Homo sapiens, RT-qPCR) is less than 0.1 µM. Also, the concentration for half-maximal inhibition (IC50) in experiment [1] (setting [5]), in experiment [1] (setting [6]), in experiment [2], in experiment [3] and in experiment [4] (Homo sapiens) was less than 0.1 µM each time.
For the molecule `Cc1nc2cc(O)c(-c3ccc4nc(N5CCC(NCC6CC6)C5)ccc4n3)cc2o1` (single isomer, unassigned) [Compound 291, 6-(6-{3-[(cyclopropylmethyl)amino]pyrrolidin-1-yl}-1,5-naphthyridin-2-yl)-2-methyl-1,3-benzoxazol-5-ol], in experiment [1] (Homo sapiens, RT-qPCR), the AC50 fell in the range of 0.1 to 1 µM. For the same molecule, the IC50 (in general, the concentration at which inhibition is half-maximal) is 0.1 to 1 µM in experiment [1] (setting [5]); 0.1 to 1 µM in experiment [1] (setting [6]); 0.1 to 1 µM in experiment [2]; 0.1 to 1 µM in experiment [3]; less than 0.1 µM in experiment [4] (Homo sapiens).
Consider `Cc1nc2cc(O)c(-c3ccc4nc(N5CCC(NCC6CC6)C5)ccc4n3)cc2o1` (single isomer, unassigned) [Compound 292, 6-(6-{3-[(cyclopropylmethyl)amino]pyrrolidin-1-yl}-1,5-naphthyridin-2-yl)-2-methyl-1,3-benzoxazol-5-ol], for which the AC50 in experiment [1] (RT-qPCR) lay within 0.1 to 1 µM. Further, the 50% inhibitory concentration (IC50) was less than 0.1 µM in experiment [1] (MYB canonical junction mRNA, RT-qPCR, read-out: MYB CJ (decrease in CJ mRNA levels, IC50)); less than 0.1 µM in experiment [1] (canonical junction qPCR panel, Table 4, read-out: MYB IC50 (decrease in CJ mRNA levels)); less than 0.1 µM in experiment [2]; 0.1 to 1 µM in experiment [3]; less than 0.1 µM in experiment [4].
Turning to `Cc1nc2c(C)c(O)c(-c3ccc4nc(N5CC[C@@H](NCC6CC6)C5)ccc4n3)cc2o1` (single isomer, unassigned) [Compound 295], the AC50 in experiment [1] (Homo sapiens, RT-qPCR) is less than 0.1 µM. For the same molecule, the IC50 in experiment [1] (setting [5]), in experiment [1] (setting [6]), in experiment [2], in experiment [3] and in experiment [4] (Homo sapiens) was less than 0.1 µM each time.
On to `Cc1nc2c(C)c(O)c(-c3ccc4nc(N5CC[C@H](NCC6CC6)C5)ccc4n3)cc2o1` (single isomer, unassigned) [Compound 296], for which, in experiment [1] (Homo sapiens, RT-qPCR), the AC50 was less than 0.1 µM. The IC50 in experiment [1] (setting [5]) is 0.1 to 1 µM; in experiment [1] (setting [6]), 0.1 to 1 µM; in experiment [2] it was less than 0.1 µM; in experiment [3], less than 0.1 µM; in experiment [4] (Homo sapiens), less than 0.1 µM.
`Cn1cc2cc(-c3ccc4nc(N5CC[C@@H](N[C@H]6C[C@@H](F)C6)C5)ccc4n3)c(O)cc2n1` (single isomer, unassigned) [Compound 300]: the AC50 in experiment [1] (Homo sapiens, RT-qPCR) was less than 0.1 µM. For the same molecule, the IC50 in experiment [1] (setting [5]), in experiment [1] (setting [6]), in experiment [2], in experiment [3] and in experiment [4] (Homo sapiens) was less than 0.1 µM in each case.
As to `Cn1cc2cc(-c3ccc4nc(N5CC[C@@H](NCC6CC6)C5)ccc4n3)c(O)c(F)c2n1` (single isomer, unassigned) [Compound 303], in experiment [1] (Homo sapiens, RT-qPCR), the AC50 is less than 0.1 µM. Also, the IC50 in experiment [1] (setting [5]), in experiment [1] (setting [6]), in experiment [2], in experiment [3] and in experiment [4] (Homo sapiens) was less than 0.1 µM each time.
Turning to `Cn1cc2cc(-c3ccc4nc(N5CC[C@H](NCC6CC6)C5)ccc4n3)c(O)c(F)c2n1` (single isomer, unassigned) [Compound 304], the AC50 in experiment [1] (Homo sapiens, RT-qPCR) was less than 0.1 µM. The IC50 in experiment [1] (setting [5]), in experiment [1] (setting [6]), in experiment [2], in experiment [3] and in experiment [4] (Homo sapiens) was less than 0.1 µM throughout.
Regarding `Cn1cc2cc(-c3ccc4nc(N5CC[C@@H](NC6CC6)C5)ccc4n3)c(O)c(F)c2n1` (single isomer, unassigned) [Compound 305], the AC50 in experiment [1] (Homo sapiens, RT-qPCR) was less than 0.1 µM. The IC50 in experiment [1] (setting [5]), in experiment [1] (setting [6]), in experiment [2], in experiment [3] and in experiment [4] (Homo sapiens) was less than 0.1 µM in each case.
With `Cn1cc2cc(-c3ccc4nc(N5CC[C@H](NC6CC6)C5)ccc4n3)c(O)c(F)c2n1` (single isomer, unassigned) [Compound 306], the AC50 in experiment [1] (Homo sapiens, RT-qPCR) was less than 0.1 µM. For the same molecule, the IC50 in experiment [1] (setting [5]), in experiment [1] (setting [6]), in experiment [2], in experiment [3] and in experiment [4] (Homo sapiens) was less than 0.1 µM in each case.
Consider `Cc1nc2c(F)c(O)c(-c3ccc4nc(N5CC[C@@H](NC6CCC6)C5)ccc4n3)cc2o1` (single isomer, unassigned) [Compound 307], for which the AC50 in experiment [1] (Homo sapiens, RT-qPCR) was less than 0.1 µM. Also, the IC50 in experiment [1] (setting [5]), in experiment [1] (setting [6]), in experiment [2], in experiment [3] and in experiment [4] (Homo sapiens) was less than 0.1 µM each time.
For the molecule `Cc1nc2c(F)c(O)c(-c3ccc4nc(N5CC[C@H](NC6CCC6)C5)ccc4n3)cc2o1` (single isomer, unassigned) [Compound 308], the AC50 in experiment [1] (Homo sapiens, RT-qPCR) was less than 0.1 µM. Also, the IC50 in experiment [1] (setting [5]), in experiment [1] (setting [6]), in experiment [2], in experiment [3] and in experiment [4] (Homo sapiens) was less than 0.1 µM each time.
For the molecule `Cc1nc2c(C)c(O)c(-c3ccc4nc(N5CC[C@@H](NC6(C)CC6)C5)ccc4n3)cc2o1` (single isomer, unassigned) [Compound 310], the AC50 in experiment [1] (Homo sapiens, RT-qPCR) was less than 0.1 µM. The IC50 in experiment [1] (setting [5]), in experiment [1] (setting [6]), in experiment [2], in experiment [3] and in experiment [4] (Homo sapiens) was less than 0.1 µM each time.
Take `Cc1nc2c(C)c(O)c(-c3ccc4nc(N5CC[C@H](NC6(C)CC6)C5)ccc4n3)cc2o1` (single isomer, unassigned) [Compound 311]: the AC50 in experiment [1] (Homo sapiens, RT-qPCR) fell in the range of 0.1 to 1 µM. Besides, the IC50 in experiment [1] (setting [5]) is 0.1 to 1 µM; in experiment [1] (setting [6]), 0.1 to 1 µM; in experiment [2], less than 0.1 µM; in experiment [3] it was 0.1 to 1 µM; in experiment [4] (Homo sapiens), less than 0.1 µM.
As to `Cc1nc2c(C)c(O)c(-c3ccc4nc(N5CC[C@@H](NC(C)C)C5)ccc4n3)cc2o1` (single isomer, unassigned) [Compound 313], the AC50 in experiment [1] (Homo sapiens, RT-qPCR) was less than 0.1 µM. The half-maximal inhibitory concentration (IC50) in experiment [1] (setting [5]), in experiment [1] (setting [6]), in experiment [2], in experiment [3] and in experiment [4] (Homo sapiens) was less than 0.1 µM in each case.
In the case of `Cc1nc2c(C)c(O)c(-c3ccc4nc(N5CC[C@H](NC(C)C)C5)ccc4n3)cc2o1` (single isomer, unassigned) [Compound 314], in experiment [1] (Homo sapiens, RT-qPCR), the concentration at half-maximal activity (AC50) is less than 0.1 µM. For the same molecule, the IC50 in experiment [1] (setting [5]), in experiment [1] (setting [6]), in experiment [2], in experiment [3] and in experiment [4] (Homo sapiens) was less than 0.1 µM in each case.
With `Cn1cc2cc(-c3ccc4nc(N5CC[C@@H](NC6CCC6)C5)ccc4n3)c(O)c(F)c2n1` (single isomer, unassigned) [Compound 316], in experiment [1] (Homo sapiens, RT-qPCR), the AC50 was less than 0.1 µM. Besides, the half-maximal inhibitory concentration (IC50) in experiment [1] (setting [5]), in experiment [1] (setting [6]), in experiment [2], in experiment [3] and in experiment [4] (Homo sapiens) was less than 0.1 µM throughout.
